# Measured values as given in ChEMBL document CHEMBL5303573, “Mapping human microbiome drug metabolism by gut bacteria and their genes” (Nature, 2019).
# What was measured:
# [1] = The drug is tested on Bifidobacterium longum subsp. Infantis strain: CCUG52486 for biotransformation. The drug concentrations were measured before and after a 12-h incubation by liquid-chromatography-coupled mass spectrometry (LC–MS); details: 2 µM
# [2] = The drug is tested on Bifidobacterium ruminantium strain: fecal isolate for biotransformation. The drug concentrations were measured before and after a 12-h incubation by liquid-chromatography-coupled mass spectrometry (LC–MS); details: 2 µM
# [3] = The drug is tested on Bacteroides pectinophilus strain: ATCC43243 for biotransformation. The drug concentrations were measured before and after a 12-h incubation by liquid-chromatography-coupled mass spectrometry (LC–MS); details: 2 µM
# [4] = The drug is tested on Anaerotruncus colihominis strain: DSM17241 for biotransformation. The drug concentrations were measured before and after a 12-h incubation by liquid-chromatography-coupled mass spectrometry (LC–MS); details: 2 µM
# [5] = The drug is tested on Coprococcus comes strain: ATCC27758 for biotransformation. The drug concentrations were measured before and after a 12-h incubation by liquid-chromatography-coupled mass spectrometry (LC–MS); type: ADME; design: dose 2 uM, timepoint 0 vs 12 hours; details: 2 µM
# [6] = The drug is tested on Eubacterium hallii strain: DSM3353 for biotransformation. The drug concentrations were measured before and after a 12-h incubation by liquid-chromatography-coupled mass spectrometry (LC–MS); details: anaerobutyricum hallii, 2 µM
# [7] = The drug is tested on Providencia rettgeri strain: DSM1131 for biotransformation. The drug concentrations were measured before and after a 12-h incubation by liquid-chromatography-coupled mass spectrometry (LC–MS); type: ADME; design: dose 2 uM, timepoint 0 vs 12 hours; details: 2 µM
# [8] = The drug is tested on Providencia stuartii strain: ATCC25827 for biotransformation. The drug concentrations were measured before and after a 12-h incubation by liquid-chromatography-coupled mass spectrometry (LC–MS); details: 2 µM
# [9] = bifidobacterium adolescentis, 12 h, 2 µM
# [10] = bacteroides eggerthii, 12 h, 2 µM
# [11] = bacteroides intestinalis, 12 h, 2 µM
# [12] = parabacteroides distasonis, 12 h, 2 µM
# [13] = segatella copri, 12 h, 2 µM
# [14] = enterocloster bolteae, 12 h, 2 µM
# [15] = roseburia intestinalis, 12 h, 2 µM
# [16] = akkermansia muciniphila, 12 h, 2 µM
# [17] = The drug is tested on Bacteroides uniformis strain: ATCC8492 for biotransformation. The drug concentrations were measured before and after a 12-h incubation by liquid-chromatography-coupled mass spectrometry (LC–MS); details: 2 µM
# [18] = The drug is tested on Eubacterium rectale strain: ATCC33656 for biotransformation. The drug concentrations were measured before and after a 12-h incubation by liquid-chromatography-coupled mass spectrometry (LC–MS); details: agathobacter rectalis, 2 µM
Compound,Bacterial Biotransformation [1],Bacterial Biotransformation [2],Bacterial Biotransformation [3],Bacterial Biotransformation [4],Bacterial Biotransformation [5],Bacterial Biotransformation [6],Bacterial Biotransformation [7],Bacterial Biotransformation [8],Bacterial Biotransformation [9],Bacterial Biotransformation [10],Bacterial Biotransformation [11],Bacterial Biotransformation [12],Bacterial Biotransformation [13],Bacterial Biotransformation [14],Bacterial Biotransformation [15],Bacterial Biotransformation [16],Bacterial Biotransformation [17],Bacterial Biotransformation [18]
CCN(CC)CCNC(C(=O)OCCC(C)C)c1ccccc1.Cl.Cl (configuration not stated),Compound NOT metabolized,Compound NOT metabolized,Compound NOT metabolized,Compound NOT metabolized,Compound NOT metabolized,Compound NOT metabolized,Compound NOT metabolized,Compound NOT metabolized,Compound NOT metabolized,Compound NOT metabolized,Compound NOT metabolized,Compound NOT metabolized,Compound NOT metabolized,Compound NOT metabolized,Compound NOT metabolized,Compound NOT metabolized,,
COc1ccc(CCN(C)CCCC(C#N)(c2ccc(OC)c(OC)c2)C(C)C)cc1OC (configuration not stated),Compound NOT metabolized,Compound NOT metabolized,Compound NOT metabolized,Compound NOT metabolized,Compound NOT metabolized,Compound metabolized,Compound NOT metabolized,Compound NOT metabolized,Compound NOT metabolized,Compound NOT metabolized,Compound metabolized,Compound metabolized,Compound metabolized,,,Compound metabolized,Compound metabolized,
COc1cc2nc(N3CCN(C(=O)c4ccco4)CC3)nc(N)c2cc1OC [PRAZOSIN],Compound NOT metabolized,Compound NOT metabolized,Compound NOT metabolized,Compound NOT metabolized,Compound NOT metabolized,Compound NOT metabolized,Compound NOT metabolized,Compound NOT metabolized,Compound NOT metabolized,Compound NOT metabolized,Compound NOT metabolized,Compound NOT metabolized,Compound NOT metabolized,Compound NOT metabolized,Compound NOT metabolized,Compound NOT metabolized,Compound NOT metabolized,Compound NOT metabolized
O=C1C(CC[S+]([O-])c2ccccc2)C(=O)N(c2ccccc2)N1c1ccccc1 (configuration not stated) [SULFINPYRAZONE],Compound NOT metabolized,Compound NOT metabolized,Compound NOT metabolized,Compound NOT metabolized,Compound NOT metabolized,Compound NOT metabolized,,Compound NOT metabolized,Compound NOT metabolized,Compound NOT metabolized,,Compound NOT metabolized,Compound NOT metabolized,Compound NOT metabolized,Compound NOT metabolized,Compound NOT metabolized,,Compound NOT metabolized

# Continued, values first:
Bacterial Biotransformation [1],Bacterial Biotransformation [2],Bacterial Biotransformation [3],Bacterial Biotransformation [4],Bacterial Biotransformation [5],Bacterial Biotransformation [6],Bacterial Biotransformation [7],Bacterial Biotransformation [8],Bacterial Biotransformation [9],Bacterial Biotransformation [10],Bacterial Biotransformation [11],Bacterial Biotransformation [12],Bacterial Biotransformation [13],Bacterial Biotransformation [14],Bacterial Biotransformation [15],Bacterial Biotransformation [16],Bacterial Biotransformation [17],Bacterial Biotransformation [18],Compound
Compound NOT metabolized,Compound metabolized,Compound NOT metabolized,Compound NOT metabolized,Compound NOT metabolized,Compound NOT metabolized,Compound NOT metabolized,Compound NOT metabolized,Compound NOT metabolized,,,Compound metabolized,Compound NOT metabolized,Compound NOT metabolized,,Compound metabolized,Compound metabolized,Compound NOT metabolized,CCCCc1nc(Cl)c(CO)n1Cc1ccc(-c2ccccc2-c2nn[nH]n2)cc1 [LOSARTAN]
,Compound metabolized,Compound NOT metabolized,Compound NOT metabolized,Compound NOT metabolized,Compound NOT metabolized,Compound NOT metabolized,Compound NOT metabolized,Compound NOT metabolized,,Compound NOT metabolized,Compound metabolized,Compound NOT metabolized,Compound NOT metabolized,Compound NOT metabolized,,Compound metabolized,,O=C1N=C([O-])NC1(c1ccccc1)c1ccccc1.[Na+] [PHENYTOIN SODIUM]
Compound NOT metabolized,Compound NOT metabolized,Compound NOT metabolized,Compound NOT metabolized,Compound NOT metabolized,Compound NOT metabolized,,,Compound NOT metabolized,Compound NOT metabolized,Compound NOT metabolized,,Compound NOT metabolized,Compound NOT metabolized,Compound NOT metabolized,Compound NOT metabolized,Compound NOT metabolized,Compound NOT metabolized,OCCOCCN1CCN(C2=Nc3ccccc3Sc3ccccc32)CC1 [QUETIAPINE]
,Compound NOT metabolized,Compound NOT metabolized,Compound NOT metabolized,Compound NOT metabolized,Compound NOT metabolized,Compound NOT metabolized,Compound NOT metabolized,,Compound NOT metabolized,,,Compound NOT metabolized,Compound NOT metabolized,Compound NOT metabolized,Compound NOT metabolized,,,CN(C)CCc1c[nH]c2ccc(Cn3cncn3)cc12.O=C(O)c1ccccc1 [RIZATRIPTAN BENZOATE]
Compound NOT metabolized,Compound NOT metabolized,Compound NOT metabolized,Compound NOT metabolized,Compound NOT metabolized,Compound NOT metabolized,Compound NOT metabolized,Compound NOT metabolized,Compound NOT metabolized,Compound NOT metabolized,Compound NOT metabolized,Compound NOT metabolized,Compound NOT metabolized,Compound NOT metabolized,Compound NOT metabolized,Compound NOT metabolized,,Compound NOT metabolized,O=c1n(CCCN2CCN(c3cccc(Cl)c3)CC2)nc2ccccn12 [TRAZODONE]
